From patent US5795860A, “Analogs for specific oligosaccharide-protein interactions and uses therefor” (Repligen Corporation, priority 1994, dated 1998)

Legend:
[1] = toxicity of protamine
[2] = test system: IL-8; assay: IL-8 mediated inflammation, influx of polymorphonuclear leukocytes into the peritoneal cavity; format: in vivo, mouse; conditions: protamine chloride 100-250 mg i.v. (tail vein), IL-8 i.p.
Protocol: Typically about 50-100 μl of a sample of 1-2 μg of HAHBS suspended in phosphate buffered saline (PBS) or alternatively an equivalent amount of PBS alone is injected into the tail vein of a mouse at the same time that 1 μg of IL-8 is introduced into the peritoneal cavity. After 3 hours the peritoneal cavity is lavaged and the infiltrated cells are counted.
After 3 hours the peritoneal cavity is lavaged and the infiltrated cells are counted.
Typically a dose of 100-250 mg is suspended in PBS and injected into the tail vein of the mice. IL-8 is again injected into the peritoneal cavity.

[3] = heparin-agarose column, NaCl gradient elution; format: binding; conditions: NaCl gradient 0.125M up to 1M; 50 mM Tris
Protocol: A mutant IL-8 gene is synthesized in which the ELR sequence at positions 4-6 (Seq. ID No. 1) is modified to glu-leu-gln (ELQ). The modified gene is expressed in E. coli by standard techniques well known to those skilled in the art and the protein product is extracted from the lysed cell pellet with 6M guanidine-HCl. The extract is dialyzed against 50 mM Tris, 0.125M NaCl and passed over a heparin-agarose column. […] The mutant chemokine is eluted from the column at about 0.6-0.7M salt.

[4] = affinity coelectrophoresis of ELQ-IL-8 with heparin; format: binding; conditions: compared with native IL-8
From the text: Commercial heparin (porcine mucosa, Sigma Biochemical) is radioactively labeled by first incorporating tyramine at the reducing end of the chains and then introducing radioactive iodine using the chloramine T reaction, a procedure well known in the art. The heparin is size fractionated on a Sephadex G-100 column (Pharmacia) and the last 10% of the heparin to elute is selected and utilized for the labeling. The labeled low molecular weight heparin is then bound to varying concentrations of IL-8 under equilibrium conditions using the technique of affinity coelectrophoresis, as described by Lee and Lander, Proc. Nat. Acad. Sci., U.S.A. (1991) 88, 2768-2772. Briefly, a horizontal 1% agarose gel is poured, using low melting point agarose, that contains nine rectangular wells of equal dimensions (about 3×10 mm). The buffer used comprises 125 mM sodium acetate, 50 mM MOPSO, pH 7.0. 0.5% 3-[3-cholamidopropyl) dimethylammonio]-1-propanesulfonate (CHAPS) may be used in the buffer to prevent adventitious binding of protein to vessel walls. The wells in the horizontal gel are subsequently filled with a requisite amount of 1% agarose which contains varying concentrations of IL-8 ranging from about 80 nM up to about 80 μM. The IL-8 may be produced by recombinant means as is well known in the art or may alternatively be produced as a synthetic peptide. […]

[5] = affinity coelectrophoresis of ELQ-IL-8 with heparan sulfate; format: binding; conditions: compared with native IL-8
[6] = test system: neutrophils; assay: activation or attraction of neutrophils; format: cell-based
[7] = test system: "Glyceptor" sequences on post-capillary endothelium of human dermal tissue; assay: binding of 125I-labeled chemokine to human dermal tissue, microscopic autoradiography; conditions: for binding of 125I-labeled chemokine to vasculature / post-capillary endothelium: microscopic autoradiography
Protocol: A sample of human dermal tissue of about 1 mm^3 is incubated with ^125 I-labeled human IL-8 as described in the art (see, e.g., Rot, A. (1992) Cytokine 4, 347, the disclosure of which is incorporated herein by reference).

[8] = test system: "Glyceptor" sequence-effector molecule interactions; assay: interference with "Glyceptor" sequence-effector molecule interactions; format: binding

protamine chloride
toxicity [1]: generally toxic agent | inhibition of neutrophil influx [2]: significant inhibition of neutrophil influx

ELQ-IL-8: mutant IL-8 in which the ELR sequence at positions 4-6 (Seq. ID No. 1) is modified to glu-leu-gln (ELQ)
salt concentration eluting from heparin-agarose column [3]: 0.6 to 0.7 M | binding to heparin [4]: behaves in a similar fashion to native IL-8 | binding to heparan sulfate [5]: behaves in a similar fashion to native IL-8 | activation or attraction of neutrophils [6]: not able to activate or attract neutrophils | binding of labeled native IL-8 to vasculature in presence of ELQ-IL-8 ([7]; 10 fold excess over radiolabeled native IL-8, ex vivo): substantially reduced | binding of 125I-labeled chemokine to vasculature / post-capillary endothelium [7]: Binding occurs in the same pattern as observed with native IL-8

IL-8: 125I-labeled human IL-8
binding of 125I-labeled chemokine to vasculature / post-capillary endothelium [7]: binds preferentially to certain regions of the vasculature

Cc1ccc(C(=O)Nc2ccc(S(=O)(=O)O)c3cc(S(=O)(=O)O)cc(S(=O)(=O)O)c23)cc1NC(=O)c1cccc(NC(=O)Nc2cccc(C(=O)Nc3cc(C(=O)Nc4ccc(S(=O)(=O)O)c5cc(S(=O)(=O)O)cc(S(=O)(=O)O)c45)ccc3C)c2)c1 [suramin]
interference with "Glyceptor" sequence-effector molecule interactions [8]: interferes with "Glyceptor" sequence-effector molecule interactions
